According to patent US20210115104A1, “AMYLIN ANALOGUES” (Zealand Pharma A/S, priority 2015, published 2021):
*1 amine or outer side, *2 acyl side, *3 side chain or, on linkers, in order; H or OH if unused. Where a SMILES comes first, the peptide text is derived from it. Bridges are numbered along the chain shown (N, C = ends). [ ]: non-standard residue; d: D form. The star is where a group is joined. C20 diacid = O=C(O)CCCCCCCCCCCCCCCCCCC(=O)*; Pro(4R-NH2) = N[C@H]1CN[C@H](C(=O)O)C1; γGlu = O=C(O)[C@H](CCC(=O)[*:2])N[*:1]; Hyp = O=C(O)[C@@H]1C[C@@H](O)CN1; NMeI = CC[C@H](C)[C@H](NC)C(=O)O; Aad = N[C@@H](CCCC(=O)O)C(=O)O; Sar = CNCC(=O)O

Assays:
[1] = Assessment of physical stability (Thioflavin T fibrillation); format: physicochemical; parameters: key: FND = fibrillation not detected; FD = fibrillation detected; conditions: 1 mg/ml, 40° C., ThT; for Fibrillation pH 4.0 (Ac): 50 mM acetate buffer pH 4.0, 96 hours; for Fibrillation pH 7.0 (His): 50 mM histidine buffer pH 7.0, 96 hours; for Fibrillation pH 7.0 (Phos.): 50 mM phosphate buffer pH 7.0, 96 hours
Description: Solutions containing (i) 1 mg/ml of test peptide, 40 μM ThT and 50 mM phosphate (Ph) buffer (pH 7.0), (ii) 1 mg/ml of test peptide, 40 μM ThT and 50 mM histidine (His) buffer (pH 7.0), and (iii) 1 mg/ml of test peptide, 40 μM ThT and 50 mM acetate (Ac) buffer (pH 4.0), were loaded in a 96-well black fluorescence plate (clear bottom) in triplicate. Data were collected at fixed intervals of 10 min, each preceded by 300 s of automixing (agitation), over a period of 96 hours at 40° C. Physical stability, expressed as lag-time of fibril formation (in hours), was defined as the intersection between two linear regressions representing the initial stable phase and the growth phase.

[2] = Assessment of chemical stability (RP-HPLC normalized purity); format: physicochemical; conditions: 7 days, 40° C., Table 1; for Normalized purity after 7 days, 40° C., pH 4: pH 4, 0.2 mg/ml; for Normalized purity after 7 days, 40° C., pH 7.5: pH 7.5, 0.2 mg/ml; for Normalized purity after 7 days, 40° C., pH 9: pH 9, 0.2 mg/ml; for Normalized purity after 7 days, 40° C., pH 6: pH 6, 0.2 mg/ml
Description: Samples of each test peptide were dissolved in MilliQ™ water, and the pH of the solution was adjusted to pH 4, pH 6, pH 7.5 or pH 9, respectively, using either HCl or NaOH. The final peptide concentration was 0.2 mg/ml. Samples were placed in glass vials and incubated at 40° C. The samples were analyzed by RP-HPLC on a C8 column with gradient elution using an ammonium formate/water eluent system, or on a C18 column with gradient elution using a trifluoroacetic acid/water eluent system. The area-percentage (area-%) of the main peak after incubation time T=t (relative to time T=0) was determined by UV spectroscopy at 220 nm.
The purity was first determined as follows:
Purity(area-%)=(area of main peak/total area of all peaks)×100.
The purity was then normalized between time points by setting purity at time 0 (T=0) to 100 for each pH value for a given peptide, as follows:
Normalised area-% at time t (T=t)=[area-%(T=t)/area-%(T=0)]×100.
The normalized purity values in Table 1 were determined after 7 days of incubation.
The chemical stability assessment described in Example 6 was repeated for four pairs of compounds, each differing only by the presence or absence of an Asn-Asn (N—N) doublet at positions 21 and 22.

| Fibrillation pH 4.0 (Ac) [1] | Fibrillation pH 7.0 (His) [1] | Fibrillation pH 7.0 (Phos.) [1] | Normalized purity after 7 days, 40° C., pH 4 [2] | Normalized purity after 7 days, 40° C., pH 7.5 [2] | Normalized purity after 7 days, 40° C., pH 9 [2] | Normalized purity after 7 days, 40° C., pH 6 [2] | SMILES |
| --- | --- | --- | --- | --- | --- | --- | --- |
| FND | FND | FND | A (A = >90%) | A (A = >90%) | A (A = >90%) | B (B = 70-90%) | CC[C@H](C)[C@@H](C(=O)N[C@@H](CC(C)C)C(=O)N[C@@H](CO)C(=O)N[C@@H](CO)C(=O)N[C@H](C(=O)N[C@@H](CCC(=O)O)C(=O)N[C@H](C(=O)NCC(=O)N[C@@H](CO)C(=O)N[C@@H](CC(N)=O)C(=O)N[C@H](C(=O)N1C[C@H](O)C[C@H]1C(N)=O)[C@@H](C)O)C(C)C)[C@@H](C)O)N(C)C(=O)[C@H](C)NC(=O)CN(C)C(=O)[C@H](Cc1ccccc1)NC(=O)[C@H](CO)NC(=O)[C@H](CO)NC(=O)[C@H](CCCNC(=N)N)NC(=O)[C@H](CCC(=O)O)NC(=O)[C@H](CC(C)C)NC(=O)[C@H](Cc1ccccc1)NC(=O)[C@H](Cc1c[nH]cn1)NC(=O)[C@H](C)NC(=O)[C@H](CC(C)C)NC(=O)[C@H](CCCNC(=N)N)NC(=O)[C@H](CCC(=O)O)NC(=O)[C@@H](NC(=O)[C@H](C)NC(=O)[C@@H]1CSSC[C@H](NC(=O)[C@H](CCCNC(=N)N)NC(=O)CC[C@H](NC(=O)CCCCCCCCCCCCCCCCCCC(=O)O)C(=O)O)C(=O)NCC(=O)N[C@@H]([C@@H](C)O)C(=O)N[C@@H](C)C(=O)N[C@@H]([C@@H](C)O)C(=O)N1)[C@@H](C)O [Compound 8, [19CD]-isoGlu-R-C( )-GTAT-C( )-ATERLAHFLERSSF-Gly(Me)-A-Ile(Me)-LSSTEVGSNT-Hyp-NH2] ({C20 diacid-γGlu}-RCGTATCATERLAHFLERSSF[Sar]A[NMeI]LSSTEVGSNT[Hyp]-NH2; disulfide 2-7) |
| FND | FD | FD | A (A = >90%) | B (B = 70-90%) | B (B = 70-90%) | A (A = >90%) | CC[C@H](C)[C@@H](C(=O)N[C@@H](CC(C)C)C(=O)N[C@@H](CO)C(=O)N[C@@H](CO)C(=O)N[C@H](C(=O)N[C@@H](CCC(=O)O)C(=O)N[C@H](C(=O)NCC(=O)N[C@@H](CO)C(=O)N[C@@H](CCCC(=O)O)C(=O)N[C@H](C(=O)N1C[C@H](O)C[C@H]1C(N)=O)[C@@H](C)O)C(C)C)[C@@H](C)O)N(C)C(=O)[C@H](C)NC(=O)CN(C)C(=O)[C@H](Cc1ccccc1)NC(=O)[C@H](CO)NC(=O)[C@H](CO)NC(=O)[C@H](CCCNC(=N)N)NC(=O)[C@@H](NC(=O)[C@H](CC(C)C)NC(=O)[C@H](Cc1ccccc1)NC(=O)[C@H](Cc1c[nH]cn1)NC(=O)[C@H](C)NC(=O)[C@H](CC(C)C)NC(=O)[C@H](CCCNC(=N)N)NC(=O)[C@H](CCC(=O)O)NC(=O)[C@@H](NC(=O)[C@H](C)NC(=O)[C@@H]1CSSC[C@H](NC(=O)[C@H](CCCNC(=N)N)NC(=O)CC[C@H](NC(=O)CCCCCCCCCCCCCCCCCCC(=O)O)C(=O)O)C(=O)NCC(=O)N[C@@H]([C@@H](C)O)C(=O)N[C@@H](C)C(=O)N[C@@H]([C@@H](C)O)C(=O)N1)[C@@H](C)O)[C@@H](C)O [Compound 12, [19CD]-isoGlu-R-C( )-GTAT-C( )-ATERLAHFLTRSSF-Gly(Me)-A-Ile(Me)-LSSTEVGS-Aad-T-Hyp-NH2] ({C20 diacid-γGlu}-RCGTATCATERLAHFLTRSSF[Sar]A[NMeI]LSSTEVGS[Aad]T[Hyp]-NH2; disulfide 2-7) |
| FND | FD | FND | A (A = >90%) | A (A = >90%) | A (A = >90%) | A (A = >90%) | CC[C@H](C)[C@@H](C(=O)N[C@@H](CC(C)C)C(=O)N[C@@H](CO)C(=O)N[C@@H](CO)C(=O)N[C@H](C(=O)N[C@@H](CCC(=O)O)C(=O)N[C@H](C(=O)NCC(=O)N[C@@H](CO)C(=O)N[C@@H](CCC(=O)O)C(=O)N[C@H](C(=O)N1CCC[C@H]1C(N)=O)[C@@H](C)O)C(C)C)[C@@H](C)O)N(C)C(=O)[C@H](C)NC(=O)CN(C)C(=O)[C@H](Cc1ccccc1)NC(=O)[C@H](CCCNC(=N)N)NC(=O)[C@H](Cc1c[nH]cn1)NC(=O)[C@H](CC(C)C)NC(=O)[C@H](Cc1ccccc1)NC(=O)[C@H](Cc1c[nH]cn1)NC(=O)[C@H](C)NC(=O)[C@H](CC(C)C)NC(=O)[C@H](CCCNC(=N)N)NC(=O)[C@H](CCC(N)=O)NC(=O)[C@@H](NC(=O)[C@H](C)NC(=O)[C@@H]1CSSC[C@H](NC(=O)[C@H](CCCNC(=N)N)NC(=O)CC[C@H](NC(=O)CCCCCCCCCCCCCCCCCCC(=O)O)C(=O)O)C(=O)N[C@@H](CC(N)=O)C(=O)N[C@@H]([C@@H](C)O)C(=O)N[C@@H](C)C(=O)N[C@@H]([C@@H](C)O)C(=O)N1)[C@@H](C)O [Compound 14, [19CD]-isoGlu-R-C( )-NTAT-C( )-ATQRLAHFLHRF-Gly(Me)-A-Ile(Me)-LSSTEVGSETP-NH2] ({C20 diacid-γGlu}-RCNTATCATQRLAHFLHRF[Sar]A[NMeI]LSSTEVGSETP-NH2; disulfide 2-7) |

| SMILES | Fibrillation pH 4.0 (Ac) [1] | Fibrillation pH 7.0 (His) [1] | Fibrillation pH 7.0 (Phos.) [1] | Normalized purity after 7 days, 40° C., pH 4 [2] | Normalized purity after 7 days, 40° C., pH 7.5 [2] | Normalized purity after 7 days, 40° C., pH 9 [2] | Normalized purity after 7 days, 40° C., pH 6 [2] |
| --- | --- | --- | --- | --- | --- | --- | --- |
| CC[C@H](C)[C@@H](C(=O)N[C@@H](CC(C)C)C(=O)N[C@@H](CO)C(=O)N[C@@H](CO)C(=O)N[C@H](C(=O)N[C@@H](CC(N)=O)C(=O)N[C@H](C(=O)NCC(=O)N[C@@H](CO)C(=O)N[C@@H](CC(N)=O)C(=O)N[C@H](C(=O)N1C[C@H](N)C[C@H]1C(N)=O)[C@@H](C)O)C(C)C)[C@@H](C)O)N(C)C(=O)[C@H](C)NC(=O)CN(C)C(=O)[C@H](Cc1ccccc1)NC(=O)[C@H](CC(N)=O)NC(=O)[C@H](CC(N)=O)NC(=O)[C@H](CO)NC(=O)[C@H](CO)NC(=O)[C@H](CCCNC(=N)N)NC(=O)[C@H](Cc1c[nH]cn1)NC(=O)[C@H](CC(C)C)NC(=O)[C@H](Cc1ccccc1)NC(=O)[C@H](Cc1c[nH]cn1)NC(=O)[C@H](C)NC(=O)[C@H](CC(C)C)NC(=O)[C@H](CCCNC(=N)N)NC(=O)[C@H](CCC(N)=O)NC(=O)[C@@H](NC(=O)[C@H](C)NC(=O)[C@@H]1CSSC[C@H](NC(=O)[C@H](CCCNC(=N)N)NC(=O)CC[C@H](NC(=O)CCCCCCCCCCCCCCCCCCC(=O)O)C(=O)O)C(=O)N[C@@H](CC(N)=O)C(=O)N[C@@H]([C@@H](C)O)C(=O)N[C@@H](C)C(=O)N[C@@H]([C@@H](C)O)C(=O)N1)[C@@H](C)O [Compound 5, [19CD]-isoGlu-R-C( )-NTAT-C( )-ATQRLAHFLHRSSNNF-Gly(Me)-A-Ile(Me)-LSSINVGSNT-Apr-NH2] ({C20 diacid-γGlu}-RCNTATCATQRLAHFLHRSSNNF[Sar]A[NMeI]LSSTNVGSNT[Pro(4R-NH2)]-NH2; disulfide 2-7) | FND | FND | FND | B (B = 70-90%) | C (C = <70%) | C (C = <70%) | – |
